A short description of series [1]: Distribution coefficient (Log D) value at pH 6.5. It counts as physicochemical. Particulars: octanol/water, read-out: LogD6.5.
Series [2] can be described thus: Distribution coefficent (Log D) value at pH 7.4. Particulars: read-out: LogD7.4. It counts as physicochemical.
Series [3] in a line: Solubility at pH 6.5. In kind it is physicochemical. The settings on record: buffer.
The nature of series [4]: Solubility at pH 7.4. It counts as physicochemical. Particulars: buffer.
Series [5] is filed under the species Homo sapiens. In words: Compound was tested in vitro for inhibition of human mixed lymphocyte proliferation (HuMLR). In kind it is functional.
For series [6], the system named is Rattus norvegicus. The series can be described thus: Compound was tested in vivo for immunosuppressive activity using rat popliteal lymph node (rPLN) hyperplasia assay. It counts as functional.
Series [7] is filed under the species Homo sapiens. The series can be described thus: Compound was tested in vitro for inhibitory activity against human FKBP. In kind it is functional.
Series [8] in a line: Compound was tested in vitro for inhibitory activity against human FK506 binding protein.
For series [9], the system named is Rattus norvegicus. The series can be described thus: Compound was tested in vivo for immunosuppressive activity using rat popliteal lymph node (rPLN) hyperplasia assay at 3 mg/kg. It counts as functional.

Values after ≈ are worked out from the molar mass of the structure shown.

As to `CC[C@@H]1/C=C(\C)C[C@H](C)C[C@H](OC)[C@H]2O[C@@](O)(C(=O)C(=O)N3CCCC[C@H]3C(=O)O[C@H](/C(C)=C/[C@@H]3CC[C@@H](O)[C@H](OC)C3)[C@H](C)[C@@H](O)CC1=O)[C@H](C)C[C@@H]2OC` [ASCOMYCIN], the logD worked out at 3.98 in series [1] and 4.22 in series [2]. The solubility in [3] amounted to 1.6 µg/mL (≈ 2.02 µM); in series [4], 4.2 µg/mL (≈ 5.3 µM). In addition, the IC50 in the series filed under Homo sapiens [5] was 0.25 nM; in the series listed under Homo sapiens [7] it was 2.06 nM. Moreover, the ED50 in the series on Rattus norvegicus [6] turned out to be 0.31 mg/kg.

Consider `CC[C@@H]1/C=C(\C)C[C@H](C)C[C@H](OC)[C@H]2O[C@@](O)(C(=O)C(=O)N3CCCC[C@H]3C(=O)O[C@H](/C(C)=C/[C@@H]3C[C@@H](O)[C@@H](O)[C@H](OC)C3)[C@H](C)[C@@H](O)CC1=O)[C@H](C)C[C@@H]2OC`, for which the logD in series [1] is 3.6; in [2], 3.4. Also, the solubility was 464 µg/mL (≈ 574 µM) in series [3] (read-out: Solubility) and 455 µg/mL (≈ 563 µM) in [4]. Further, the IC50 in the series listed under Homo sapiens [5] worked out at 0.17 nM; in the series listed under Homo sapiens [7], 1.21 nM. In the series on Rattus norvegicus [6], this compound returned an ED50 of 0.72 mg/kg.

As to `C=CC[C@@H]1/C=C(\C)C[C@H](C)C[C@H](OC)[C@H]2O[C@@](O)(C(=O)C(=O)N3CCCC[C@H]3C(=O)O[C@H](/C(C)=C/[C@@H]3CC[C@@H](O)[C@H](OC)C3)[C@H](C)[C@@H](O)CC1=O)[C@H](C)C[C@@H]2OC` [TACROLIMUS ANHYDROUS], the logD in series [1] is 4.36; in [2], 4.38. The figures for the solubility in series [3] (read-out: Solubility) and in series [4] were 1 µg/mL (≈ 1.24 µM) and 5.2 µg/mL (≈ 6.47 µM), respectively. The IC50 in series [8] came to 2.54 nM; in the series listed under Homo sapiens [5] it was 0.37 nM. In the series on Rattus norvegicus [6], this compound returned an ED50 of 0.15 mg/kg.

`CC[C@@H]1/C=C(\C)C[C@H](C)C[C@H](OC)[C@H]2O[C@@](O)(C(=O)C(=O)N3CCCC[C@H]3C(=O)O[C@H](/C(C)=C/[C@@H]3CC[C@@H](OC)[C@H](O)C3O)[C@H](C)[C@@H](O)CC1=O)[C@H](C)C[C@@H]2OC` (stereo partly drawn): the logD in series [1] and in [2] was 3.9 in each case. Moreover, the solubility in [3] (read-out: Solubility) was determined as 294 µg/mL (≈ 364 µM); in [4], 245 µg/mL (≈ 303 µM). Further, the IC50 in the series filed under Homo sapiens [5] came out at 0.72 nM; in the series listed under Homo sapiens [7] it was 39.2 nM. Further, the inhibition in vivo at 3 mg/kg in the series with Rattus norvegicus [9] came to 36%.

The values are drawn from ChEMBL document CHEMBL1130792, “Studies on an immunosuppressive macrolactam, ascomycin: synthesis of a C-33 hydroxyl derivative” (Bioorg Med Chem Lett, 1998).
